Assays:
[1] = test system: C2C12 myoblasts; assay: Myotube differentiation of C2C12 myoblasts; type: cell-based
Method: C2C12 myoblasts were purchased from ATCC (Manassas, Virginia, USA) and cultured using DMEM containing 10% fetal bovine serum. After the cells reached 70% confluence, myotube differentiation was induced while the medium was replaced with DMEM containing 2% horse serum every two days. A negative control group was treated with […] of TNF-α, which inhibits myotube differentiation. While the myoblasts were treated with paeoniflorin at a concentration of 50 to 200 μM along with TNF-α, the degree of myotube differentiation was observed and the length of differentiated myotubes was measured using the Image J program.

[2] = test system: Balb/c mice with colon-26 carcinoma-induced cachexia; assay: Body weight and muscle mass in Balb/c mice with colon-26 carcinoma-induced cachexia; type: in vivo; settings: colon-26 carcinoma-injected, paeoniflorin orally once daily for 9 days vs colon-26 carcinoma-injected group
Method: As the experimental animals, 4-week-old female C57BL/6 mice and Balb/c mice weighing 18 g to 20 g were purchased from Raon Bio (Yongin, Korea), acclimatized in the laboratory animal facility for one week, and then used in the experiment. During the experiment period, the animals were provided with solid feed and water ad libitum, and the breeding room was maintained at a temperature of 20° C. to 24° C. and a relative humidity of 55% to 65% with a 12-hr light/12-hr dark cycle.
Mice were divided into a control group and a cachexia-induced group, and the cachexia-induced group was subdivided into a tumor cell-injected group, a tumor cell-injected and existing drug (MA, megestrol acetate)-administered group, and tumor cell-injected and paeoniflorin (Pae)-administered groups. Each group consisted of 10 animals.
Each mouse of the control group was injected subcutaneously with 100 μL of saline solution. For the cachexia-induced groups, Lewis lung carcinoma cells (C57BL/6 mice) or colon-26 carcinoma cells (Balb/c mice) were injected subcutaneously into the flank area of each mouse at a dose of 10^6 cells/100 μL/mouse. […] After completion of 9 days of administration, the muscle strength of the mice was measured using a grip strength test device (Bioseb, USA), and the endurance of the mice was measured using a treadmill device (Columbus Instrument, USA).
After completion of the experiment, the mice were euthanized, blood was collected therefrom, the body weight excluding tumors, and the weights of the hind limb gastrocnemius muscle and quadriceps muscle were measured. GDF-15 in the serum was quantified by ELISA.

[3] = test system: NF-κB signaling (p-IKK, p-IκB, IκB, NF-κB p65); assay: NF-κB signaling in skeletal muscle by Western blotting; type: in vivo; settings: gastrocnemius muscle, C57BL/6 mice, cisplatin-treated, Pae 10 and Pae 20
Method: Proteins were extracted from skeletal muscle using NucleoSpin kits (Macherey-Nagel, Duren, Germany) and quantified using the BCA Protein Assay Kit (Pierce, Rockford, IL, USA). Anti-β-actin antibody was used to quantify protein loading. For myosin protein (MyHC, myosin heavy chain), myogenic factor (MyoD), and NF-κB signaling system (p-IKK, IKK, p-IκB, and IκB), protein levels in the gastrocnemius muscle were measured by Western blotting. Band intensities were quantified using ImageJ software (NIH, Bethesda, MD, USA). Nuclear and cytoplasmic lysates were prepared from the skeletal muscle using a nuclear extraction kit (Active Motif, Carlsbad, CA, USA). The protein concentration of both lysates was measured using the BCA Protein Assay Kit (Pierce). Anti-NF-κB p65 was used as the primary antibody, and 10 μg of protein per lysate was analyzed by Western blotting. TBP (TATA box-binding protein) and β-actin were as controls for the nuclear and cytosolic lysates, respectively. The target DNA binding activity of NF-κB was measured using the TransAM NF-κB ELISA kit (Active Motif, USA). NF-κB signaling was analyzed by Western blotting of the total extract and the cytosolic and nuclear fraction from the skeletal muscle of C57BL/6 mice.

[4] = test system: C57BL/6 mice with cisplatin-induced cachexia; assay: Skeletal muscle function test in cisplatin-treated C57BL/6 mice; type: in vivo; settings: oral paeoniflorin 10 or 20 mg/kg
Method: The animal experiments were performed in accordance with internationally accepted principles for laboratory animal use and care, and the corresponding study protocol was reviewed and approved by the Institutional Animal Care and Use Committee (IACUC) at Chung-Ang University (approval #2021-00022). Four-week-old female C57BL/6 mice and Balb/c mice were purchased from Raonbio Inc. (Yongin, Korea) and were provided with standard laboratory diet and water ad libitum in the animal facility of Chung-Ang University. After a week of acclimation, the mice were intraperitoneally injected three times with 3 mg/kg/day cisplatin, suspended in 200 μL saline, every other day. Control group mice (sham-treated mice) were injected with the same volume of saline under the same regimen. The cisplatin-treated groups were orally administered paeoniflroin (Pae) or megestrol acetate (MA), suspended in 200 μL distilled water, every day until euthanasia.
Specifically, the cisplatin-treated groups were orally administered paeoniflorin (prepared in Example 1) at a dose of 5 (Pae 5 group), 10 (Pae 10 group), or 20 (Pae 20 group) mg/kg once daily for 9 days. […]
A skeletal muscle function test was conducted one day before euthanasia. Muscle strength of each mouse was measured by the grip strength of front paws, and endurance of each mouse was measured by treadmill running time until exhaustion. Motor coordination was measured by retention time on a rotating cylinder with a diameter of 3 cm (Castro and Kuang, 2017). The grip strength of each mouse was measured using a grip strength meter (Bio-GS3, Bioseb, Vitrolles, France). The treadmill running time of each mouse was measured on a treadmill (Exer-3/6, Columbus Instruments, […], USA). The ability of each mouse to stay on a rotating cylinder was measured using a rotarod apparatus (Panlab, Barcelona, Spain).

Q: Which results are given for `C[C@@]12C[C@@]3(O)O[C@@H](O1)[C@]1(COC(=O)c4ccccc4)[C@H]3C[C@@]12O[C@@H]1O[C@H](CO)[C@@H](O)[C@H](O)[C@H]1O` [paeoniflorin]?
A: myotube differentiation ([1]; paeoniflorin 50 to 200 μM along with TNF-α, FIG. 19): promoted; myotube length ([1]; paeoniflorin-treated groups vs negative control group (TNF-α+Pae 0 μM), FIG. 20): significantly increased; body weight ([2]; FIG. 15A): significantly increased; weight of gastrocnemius muscle ([2]; FIG. 15B): significantly increased; weight of quadriceps muscle ([2]; FIG. 15C): significantly increased; level of p-IKK (phospho-IKK) ([3]; FIG. 10A): reduced again; level of p-IκB (phospho-IκB) ([3]; FIG. 10B): reduced again; level of IκB ([3]; FIG. 11): increased; cytosolic level of NF-κB ([3]; FIG. 12A): increased; nuclear level of NF-κB ([3]; FIG. 12B): decreased; grip strength (muscle strength) ([4]; FIG. 3A): significantly restored; treadmill running time (endurance) ([4]; FIG. 3B): significantly restored; rotarod retention time (motor coordination) ([4]; FIG. 3C): significantly restored
